Experimental data as given in patent publication US11426467B2, “Dosage regimes for the administration of an anti-CD25 ADC” (ADC THERAPEUTICS SA, priority 2017, dated 2022).

Experiment: Steroid administration with ADC, toxicity symptoms reported by subjects
Assay type: in vivo
Details: steroid given with ADC dosage regimes

## C[C@@H]1C[C@H]2[C@@H]3CCC4=CC(=O)C=C[C@]4(C)[C@@]3(F)[C@@H](O)C[C@]2(C)[C@@]1(O)C(=O)CO [dexamethasone, (8S,9R,10S,11S,13S,14S,16R,17R)-9-Fluoro-11,17-dihydroxy-17-(2-hydroxyacetyl)-10,13,16-trimethyl-6,7,8,9,10,11,12,13,14,15,16,17-dodecahydro-3H-cyclopenta[a]phenanthren-3-one]
  frequency and/or severity of toxicity symptom reported by subjects: reduced the frequency and/or severity of toxicity symptom
